According to patent US4868299A, “Antibacterially active pyrido-benzothiazine derivatives with long-term action” (Mediolanum Farmaceutici Srl, priority 1986, dated 1989):
Values after ≈ are worked out from the molar mass of the structure shown. Where two headings read alike, the source gives them in different places.

Tests used:
Assay in all cases: in-vitro antibacterial activity, MIC by agar dilution (multipoint inoculator)
Type in all cases: cell-based
Proteus 966 = settings: for MIC: read-out: Minimum Inhibiting Concentration (MIC)
Description: (§1) The antibacterial activity of the compounds according to the invention was determined "in vitro" on pathogenic strains of recent clinical isolation by testing agar dilutions using a multipoint inoculator (Denley Techn. Ltd., England).
(§2) The culture medium used is isosensitest agar (Oxoid), in a quantity of 20 ml in a Petri capsule. The compounds to be tested were dissolved at various dilutions and incorporated in agar.
(§3) The bacterial inoculum, originating from an overnight broth and containing 10^5 colony-forming units per point, was inoculated by a multipoint inoculator. The bacterial growth was evaluated after 18 hours of incubation at 37° C.
(§4) For comparison purposes, the results relative to compound (XIII) and to nalidixic acid are also reported.

Enterobacter 041 = settings: for MIC: read-out: Minimum Inhibiting Concentration (MIC)
Description: as §1, §2, §3, §4

Pseudomonas 19 = settings: for MIC: read-out: Minimum Inhibiting Concentration (MIC)
Description: as §1, §2, §3, §4

Enterobacter 2653 = settings: for MIC: read-out: Minimum Inhibiting Concentration (MIC)
Description: as §1, §2, §3, §4

Escherichia 15 = settings: 18 hours at 37° C, read-out: Minimum Inhibiting Concentration (MIC)
Description: as §1, §2, §3, §4

Staphylococcus 7 = settings: for MIC: read-out: Minimum Inhibiting Concentration (MIC)
Description: as §1, §2, §3, §4

Citrobacter 120 = settings: for MIC: read-out: Minimum Inhibiting Concentration (MIC)
Description: as §1, §2, §3, §4

Staphylococcus 29 = settings: for MIC: read-out: Minimum Inhibiting Concentration (MIC)
Description: as §1, §2, §3, §4

Citrobacter 118 = settings: for MIC: read-out: Minimum Inhibiting Concentration (MIC)
Description: as §1, §2, §3, §4

Escherichia 963 = settings: for MIC: read-out: Minimum Inhibiting Concentration (MIC)
Description: as §1, §2, §3, §4

Pseudomonas 22437 = settings: 18 hours at 37° C; for MIC: read-out: Minimum Inhibiting Concentration (MIC)
Description: as §1, §2, §3, §4

Klebsiella 4 = settings: for MIC: read-out: Minimum Inhibiting Concentration (MIC)
Description: as §1, §2, §3, §4

Proteus 25 = settings: for MIC: read-out: Minimum Inhibiting Concentration (MIC)
Description: as §1, §2, §3, §4

Serratia 9 = settings: for MIC: read-out: Minimum Inhibiting Concentration (MIC)
Description: as §1, §2, §3, §4

Serratia 10 = settings: 18 hours at 37° C, read-out: Minimum Inhibiting Concentration (MIC)
Description: as §1, §2, §3, §4

[1] = Enterobacter 041, 18 hours at 37° C
[2] = Pseudomonas 19, 18 hours at 37° C
[3] = Enterobacter 2653, 18 hours at 37° C
[4] = Staphylococcus 7, 18 hours at 37° C
[5] = Citrobacter 120, 18 hours at 37° C
[6] = Staphylococcus 29, 18 hours at 37° C
[7] = Citrobacter 118, 18 hours at 37° C
[8] = Escherichia 963, 18 hours at 37° C
[9] = Klebsiella 4, 18 hours at 37° C

CCn1cc(C(=O)O)c(=O)c2ccc(C)nc21 [NALIDIXIC ACID, nalidixic acid, reference compound]
MIC (Proteus 966; 18 h): > 25 µg/mL
MIC (Enterobacter 041; Enterobacter, 041, 18 h): 3.12 µg/mL (≈ 13.4 µM)
MIC (Pseudomonas 19; Pseudomonas, 19, 18 h): > 25 µg/mL
MIC (Enterobacter 2653; Enterobacter, 2653, 18 h): 1.56 µg/mL (≈ 6.72 µM)
MIC (Escherichia 15): 3.12 µg/mL (≈ 13.4 µM)
MIC (Staphylococcus 7; Staphylococcus, 7, 18 h): > 25 µg/mL
MIC (Citrobacter 120; Citrobacter, 120, 18 h): 12.5 µg/mL (≈ 53.8 µM)
MIC (Staphylococcus 29; Staphylococcus, 29, 18 h): > 25 µg/mL
MIC (Citrobacter 118; Citrobacter, 118, 18 h): 12.5 µg/mL (≈ 53.8 µM)
MIC (Escherichia 963; Escherichia, 963, 18 h): > 25 µg/mL
MIC (Pseudomonas 22437): > 25 µg/mL
MIC (Klebsiella 4; Klebsiella, 4, 18 h): 3.12 µg/mL (≈ 13.4 µM)
MIC (Proteus 25; 18 h): 12.5 µg/mL (≈ 53.8 µM)
MIC (Serratia 9; Serratia, 9, 18 h): > 25 µg/mL

CC1Cn2cc(C(=O)O)c(=O)c3cc(F)c(Cl)c(c32)S1 (stereo not drawn) [reference compound]
MIC (Proteus 966; Proteus 966, 18 hours at 37° C): > 32 µg/mL
MIC (Enterobacter 041; [1]): 0.12 µg/mL (≈ 0.382 µM)
MIC (Pseudomonas 19; [2]): > 32 µg/mL
MIC (Enterobacter 2653; [3]): 0.12 µg/mL (≈ 0.382 µM)
MIC (Escherichia 15): 0.25 µg/mL (≈ 0.797 µM)
MIC (Staphylococcus 7; [4]): 0.12 µg/mL (≈ 0.382 µM)
MIC (Serratia 10): 0.25 µg/mL (≈ 0.797 µM)
MIC (Citrobacter 120; [5]): > 32 µg/mL
MIC (Staphylococcus 29; [6]): 0.12 µg/mL (≈ 0.382 µM)
MIC (Citrobacter 118; [7]): 1 µg/mL (≈ 3.19 µM)
MIC (Escherichia 963; [8]): 16 µg/mL (≈ 51 µM)
MIC (Pseudomonas 22437): > 32 µg/mL
MIC (Klebsiella 4; [9]): 0.12 µg/mL (≈ 0.382 µM)
MIC (Proteus 25; Proteus 25, 18 hours at 37° C): > 32 µg/mL
MIC (Serratia 9; Serratia 9, 18 hours at 37° C): > 32 µg/mL

ethyl 9-fluoro-10-chloro-2-methyl-7-oxo-2,3-dihydro-7H-pyrido[1,2,3-de][1,4]benzothiazine-1-sulphoxide-6-carboxylate [(II)]
Minimum Inhibiting Concentration (MIC) (Proteus 966; Proteus 966, 18 hours at 37° C): 4 µg/mL
Minimum Inhibiting Concentration (MIC) (Enterobacter 041; [1]): 0.12 µg/mL
Minimum Inhibiting Concentration (MIC) (Pseudomonas 19; [2]): 16 µg/mL
Minimum Inhibiting Concentration (MIC) (Enterobacter 2653; [3]): 0.25 µg/mL
Minimum Inhibiting Concentration (MIC) (Staphylococcus 7; [4]): 1 µg/mL
Minimum Inhibiting Concentration (MIC) (Citrobacter 120; [5]): 0.5 µg/mL
Minimum Inhibiting Concentration (MIC) (Staphylococcus 29; [6]): 1 µg/mL
Minimum Inhibiting Concentration (MIC) (Citrobacter 118; [7]): 0.5 µg/mL
Minimum Inhibiting Concentration (MIC) (Escherichia 963; [8]): 2 µg/mL
Minimum Inhibiting Concentration (MIC) (Pseudomonas 22437): 16 µg/mL
Minimum Inhibiting Concentration (MIC) (Klebsiella 4; [9]): 0.25 µg/mL
Minimum Inhibiting Concentration (MIC) (Proteus 25; Proteus 25, 18 hours at 37° C): 4 µg/mL
Minimum Inhibiting Concentration (MIC) (Serratia 9; Serratia 9, 18 hours at 37° C): 8 µg/mL
